Results published in patent publication US10725042B2, “Methods of diagnosing and treating cancer” (Case Western Reserve University, priority 2012, dated 2020).

Experiments:
[1] = test system: AP sites in DNA of UDG+/+ cells; assay: AP site assay (ARP), UDG+/+ cells; type: cell-based, human; settings: pemetrexed 0-400 nM, 24 hrs
Description: The number of AP sites was measured using ARP (aldehyde reactive probe) reagent. The assay was performed as previously described. Briefly, cells (2×10^6) were collected after drug treatment and DNA was extracted. DNA (10 μg) was incubated with 15 μl of 1 mM ARP (Dojindo Laboratories, Kumamoto, Japan), and then precipitated and washed with ice-cold ethanol. The ARP-labeled DNA was then heat-denatured at 100° C. for 5 min, quickly chilled on ice and mixed with an equal volume of 2 M ammonium acetate. The DNA was then immobilized on a BA-S 85 nitrocellulose membrane (Schleicher and Schuell, Dassel, Germany) using a minifold II vacuum filter device (Schleicher and Schuell, Dassel, Germany). The membrane was incubated with 0.25% BSA-PBS containing streptavidin-conjugated horseradish peroxidase (BioGenex, SanRamon, Calif.) at room temperature for 40 min with gentle shaking. ARP-labeled AP sites were visualized by chemiluminescence (Amersham Corp, Piscataway, N.J.) followed by quantitative densitometry using NIH Image J software.

[2] = test system: H1975 66 shUNG cells; assay: Colony survival assay, H1975 66 shUNG cells; type: cell-based, human
Description: For cells in suspension, colony survival was determined by crystal violet staining of colonies formed after 10-day exposure of 5×10^3 cells to pemetrexed in soft agar. For adherent cells, colony survival was determined by methylene blue staining of colonies formed after 10-day exposure of 100 cells to pemetrexed in 6-well culture dishes. Only colonies containing ≥50 cells were counted. Data points represent percent of colonies relative to untreated control averaged over 3 experiments.
UNG directed shRNA and siRNA plasmids were purchased from Origene. Transfection was carried out according to manufacturer specifications. Stably transfected clones (shRNA) were selected with puromycin with subsequent expansion of a well-isolated colony of cells.

[3] = test system: UDG−/− cells; assay: Replication foci stained with CldU and IdU, UDG−/− cells; type: cell-based, human; settings: pemetrexed 25 nM, n=10 cells
Description: DNA replication sites were visualized by incorporation of chlorodeoxyuridine (CldU) and iododeoxyuridine (IdU) into DNA. UDG^−/− and UDG^+/+ cells were labeled with 100 μM CldU (ICN, Irvine, Calif.) or IdU (Sigma Chemical Co., St. Louis, Mo.) for 45 min at different time intervals. Cells were washed with PBS, fixed with cold 70% ethanol, and stored at 4° C. For antibody staining, the ethanol was removed, and 100% methanol was added for 5 min. Cells were washed twice with PBS and incubated with 1.5 M HCl for 30 min to denature the DNA. Cells were washed with PBS, permeabilized with 0.5% Tween 20 in PBS for 5 min, and then incubated in 5% BSA (Sigma Chemical Co.) and in PBS for 20 min to reduce nonspecific binding. Primary antibodies CldU (rat anti-BrdU; Accurate Chemical and Science Co., Westbury, N.Y.) and IdU (mouse anti-BrdU; BD Biosciences) were diluted in 1% BSA buffer, added to the slides, and incubated in a humid environment for 2 hrs. Slides were washed with PBS-Tween 20 and then in a high-salt buffer (200 mM NaCl, 0.2% Tween 20, and 0.2% NP-40 in PBS) for 15 min. The samples were incubated with secondary antibodies for 1 h. Finally, slides were washed with PBSTween 20, mounted with Vectashield antifade mounting medium (Vector Laboratories, Inc., Burlingame, Calif.), and stored at 4° C. […] Fluorescence density of CldU or IdU was quantified by NIH image J software.

[4] = test system: UNG expression in H460 cells; assay: UNG protein and transcript expression after acute pemetrexed exposure, H460; type: cell-based, human; settings: acute pemetrexed exposure 0-200 nM
Description: Protein extracts (25 μg) were resolved by SDS-PAGE and transferred to PVDF membrane (Millipore). Non-specific binding sites were blocked in 5% milk in PBST (1×PBS+0.1% Tween-20). Incubation with primary antibody at 4° C. in 5% BSA/PBS was followed by incubation with HRP-conjugated secondary antibody in 2.5% milk in PBST. Proteins were visualized with ECL reagent (Amersham Corp). Chromatinbound proteins were extracted from formaldehyde (1%) cross-linked cells using Pierce Chromatin Prep Module (Thermo Pierce). Antibody sources: UNG-23936 (39 kDa band, nuclear UNG) and PCNA (Abcam); Tubulin (Calbiochem); γH2AX and Histone-H3 (Millipore); Cleaved PARP (Cell Signaling); and p-chk1, chk1, cdc2, and p-cdc2 (Santa Cruz).
Lung cancer cDNA microarray was purchased from Origene. For cell lines, total RNA was extracted from cells using RNAqueous-4PCR kit (Ambion, Austin, Tex.). Random hexamers (Invitrogen) were used to PCR amplify cDNA from 1 μg of RNA extract. TaqMAN MGB probes (FAMTM dye labeled, Applied Biosystems) for nuclear UNG (UNG2), SMUG1, MBD4, TDG, TYMS and βPol amplified cDNA using 40 cycles of PCR in an ABI 7500 Fast Real-Time PCR System (Applied Biosystems, Foster City, Calif.). Target quantification was achieved after normalization to β-actin amplification as an endogenous control and is presented as relative quantification (RQ) values or log-mean RQ values.

[5] = test system: A549 lung cancer xenografts; assay: A549 xenograft tumors in nude mice; type: in vivo; settings: A549 tumours; pemetrexed 150 mg/kg, MX 4 mg/kg, i.p. daily for 5 days
Description: H460 or A549 tumor cells (5×10^6) were injected into bilateral flanks of female athymic NCr (nu/nu) mice (6 weeks old). When the tumor volumes reached 100-150 mm3, mice were divided into control and treatment groups (6-9 mice/group). Nude mice carrying tumors were treated with pemetrexed (150 mg/kg) alone, MX (4 mg/kg) alone or the combination of the two agents, by daily intraperitonial injection (i.p.) for 5 consecutive days. Tumor measurements were taken every 2 days. Tumor responses were quantified by tumor volume.

[6] = test system: uracil in DNA of UDG+/+ cells; assay: Uracil in DNA by HPLC/MS/MS, UDG+/+ cells; type: cell-based, human; settings: pemetrexed 10 μM, 6-72 hr
Description: UDG^−/− and UDG^+/+ cells were exposed to pemetrexed (10 μM) or 5-fluorouracil (10 μM) for 6, 24, 48 and 72 hrs. At indicated time points, cells were harvested and genomic DNA was extracted by phenol/chloroform. Forty μg of DNA were incubated with 10 U of purified UDG (New England Biolabs) in 60 μL of reaction buffer at 37° C. for 2 hrs. The reaction products were dried at 35° C. in a Turbovap under a stream of nitrogen and reconstituted in 150 μL 90% acetonitrile. The analyte was retained by an Atlantis Hilis Silica analytical column (2.1×100 mm, 3.5 μM) and eluted isocratically by a mixture of 90% acetonitrile and 10% 2.0 mM ammonium formate at a flow rate of 0.2 ml/min. The detection was done by an API 3200 MS/MS mass spectrometer.

Nc1nc2[nH]cc(CCc3ccc(C(=O)N[C@@H](CCC(=O)O)C(=O)O)cc3)c2c(=O)[nH]1 [pemetrexed]
AP sites in DNA [1]: dose-dependent formation of AP sites | sensitivity of shRNA targeted H1975 clones compared to parental cells ([2]; H1975 shUNG clones vs parental): > 5 fold | IC50 ([2]; Homo sapiens, NCI-H1975, H1975 66 shUNG, colony survival, read-out: pemetrexed IC50): 131 nM | ratio of IdU to CldU (fluorescence density) ([3]; 6-hr sample): 0.1±0.04 | ratio of IdU to CldU (fluorescence density) ([3]; 18-hr sample): 0.01±0.005 | UNG protein and transcript expression [4]: time- and dosedependent induction | antitumour activity [5]: moderately sensitive | uracil detected in DNA [6]: very low
